Reference: PMC8781960, “Structural Basis of 2-Phenylamino-4-phenoxyquinoline Derivatives as Potent HIV-1 Non-Nucleoside Reverse Transcriptase Inhibitors” (Molecules, 2022)
Marks after values point to notes of the source that are not given here.

What was measured:
HL-60 (promyeloblast) = experiment: In vitro cytotoxicity (MTT); details: for IC50: Homo sapiens, HL-60, 48 h, read-out: IC50 HL-60; for %C percentage cytotoxicity HL-60: at 50 µg/mL, inactive (IC50 ≥ 50 µg/mL)
Procedure: (§1) Background control wells contained the same volume as the complete culture medium. […] Samples at various concentrations were added to the microplate and incubated for another 48 h. Cell viability was determined by 3(4,5-dimethylthiazol-2-yl)-2-5-diphenyl tetrazolium bromide (MTT) assay (Sig-ma-Aldrich). The reagent was dissolved in phosphate-buffered saline at 5 mg/mL and filtered to sterilize and remove the small amount of insoluble residue present in some batches of MTT. […] Subsequently, dimethyl sulfoxide (100 µL; Merck, Germany) was added to dissolve the resulting formazan by sonication. The plates were read on a microplate reader (Molecular Devices, CA, USA) using a test wavelength of 550 nm and a reference wavelength of 650 nm. XTT assay for suspension cells was used for MOLT-3 cells.

S102 (Thai liver cancer) = experiment: In vitro cytotoxicity (MTT); details: at 50 µg/mL; inactive (IC50 ≥ 50 µg/mL)
Procedure: as §1

[1] = test system: HuCCA-1 (cholangiocarcinoma); experiment: In vitro cytotoxicity (MTT); details: for IC50: Homo sapiens, HuCC-A1, 48 h, read-out: IC50 HuCCA-1; for %C percentage cytotoxicity HuCCA-1: at 50 µg/mL, inactive (IC50 ≥ 50 µg/mL)
Procedure: as §1

[2] = test system: MDA-MB-231 (hormone-independent breast cancer); experiment: In vitro cytotoxicity (MTT); details: for IC50: Homo sapiens, MDA-MB-231, 48 h, read-out: IC50 MDA-MB-231; for %C percentage cytotoxicity MDA-MB-231: at 50 µg/mL, inactive (IC50 ≥ 50 µg/mL)
Procedure: as §1

[3] = test system: T47-D (hormone-dependent breast cancer); experiment: In vitro cytotoxicity (MTT); details: for IC50: Homo sapiens, T47D, 48 h, read-out: IC50 T47-D; for %C percentage cytotoxicity T47-D: at 50 µg/mL, inactive (IC50 ≥ 50 µg/mL)
Procedure: as §1

A549 (lung carcinoma) = experiment: In vitro cytotoxicity (MTT); details: for %C percentage cytotoxicity A549: at 50 µg/mL, inactive (IC50 ≥ 50 µg/mL); for IC50: Homo sapiens, A549, 48 h, read-out: IC50 A549
Procedure: as §1

[4] = test system: HeLA (cervical carcinoma); experiment: In vitro cytotoxicity (MTT); details: for IC50: Homo sapiens, HeLa, 48 h, read-out: IC50 HeLA; for %C percentage cytotoxicity HeLA: at 50 µg/mL, inactive (IC50 ≥ 50 µg/mL)
Procedure: as §1

HepG2 (hepatocarcinoma) = experiment: In vitro cytotoxicity (MTT); details: for IC50: Homo sapiens, HepG2, 48 h, read-out: IC50 HepG2; for %C percentage cytotoxicity HepG2: at 50 µg/mL, inactive (IC50 ≥ 50 µg/mL)
Procedure: as §1

[5] = test system: MRC-5 (normal embryonic lung cell); experiment: In vitro cytotoxicity (MTT), normal cell line; details: for IC50: Homo sapiens, MRC5, 48 h, read-out: IC50 MRC-5; for %C percentage cytotoxicity MRC-5: normal cell line, at 50 µg/mL, inactive (IC50 ≥ 50 µg/mL)
Procedure: as §1

[6] = test system: H69AR (lung cancer, multidrug resistant); experiment: In vitro cytotoxicity (MTT); assay type: cell-based, human; details: 48 h; for IC50: Homo sapiens, H69AR, mean ± standard error; for %C percentage cytotoxicity H69AR: human, 50 µg/mL
Procedure: Background control wells contained the same volume as the complete culture medium. […] The reagent was dissolved in phosphate-buffered saline at 5 mg/mL and filtered to sterilize and remove the small amount of insoluble residue present in some batches of MTT. […] Subsequently, dimethyl sulfoxide (100 µL; Merck, Germany) was added to dissolve the resulting formazan by sonication. The plates were read on a microplate reader (Molecular Devices, CA, USA) using a test wavelength of 550 nm and a reference wavelength of 650 nm.

HIV-1 RT [7] = molecular target: T1, HIV-1 RT (Human immunodeficiency virus type 1 group M subtype B, UniProt P03366); experiment: HIV-1 RT inhibition assay (Roche RT kit, colorimetric ELISA); assay type: biochemical; details: read-out: Inhibitory activities (%) against HIV-1 RT
T1 construct: The reaction mixture consisted of template/primer complex, 2′-deoxy-nucleotide-5′-triphosphates (dNTPs), and RT enzyme in lysis buffer; purchased Roche Applied Science, Mannheim, Germany
Excerpt: The inhibition assay of HIV-1 RT was accomplished using the template/primer hybrid poly(A) × oligo(dT)15, digoxigenin (DIG)- and biotin-labeled nucleotides, an antibody to DIG that was conjugated to peroxidase (anti-DIG-POD), and the peroxidase substrate ABTS. The quantities of DIG- and biotin-labeled dUTP incorporated into DNA represent t HIV-1 RT activity. The HIV-RT inhibition assay was implemented using an RT assay kit (Roche Applied Science, Mannheim, Germany), and the procedures for assaying RT inhibition were performed as described in the kit protocol. […] The reaction mixture consisted of template/primer complex, 2′-deoxy-nucleotide-5′-triphosphates (dNTPs), and RT enzyme in lysis buffer with or without an inhibitor. […] The biotin-labeled dNTPs that were incorporated in the template bound to streptavidin because of the presence of RT. Unbound dNTPs were washed using a wash buffer, and anti-DIG-POD was added to the MTP. The DIG-labeled dNTPs incorporated in the template bound to the anti-DIG-POD antibody. Unbound anti-DIG-POD was also washed elaborately five times using a wash buffer. Finally, the peroxide substrate (ABST) was added to the MTP. A colored reaction product emerged during the cleavage of the substrate catalyzed by […]. The absorbance of the sample was measured at the optical density (OD) at 490 nm using the MTP (enzyme-linked immunosorbent assay [ELISA]) reader. The percentage inhibitory activities of the RT inhibitors were calculated by comparing with that of the sample without an inhibitor. The resulting color intensity was directly proportional to the RT activity. Percentage inhibitory values were calculated using the following formula: Inhibition (%) = [1–(OD value with RT and inhibitor−OD value without RT and inhibitors)/(OD value without inhibitors with RT−OD value without RT and inhibitors)] × 100.

[8] = test system: MOLT-3 (acute lymphoblastic leukemia); experiment: In vitro cytotoxicity (XTT); details: for IC50: Homo sapiens, MOLT-3, 48 h, read-out: IC50 MOLT-3; for %C percentage cytotoxicity MOLT-3: at 50 µg/mL, inactive (IC50 ≥ 50 µg/mL)
Procedure: as §1

HIV-1 RT [9] = molecular target: T1, HIV-1 RT; design: method as in PMID 31698495; details: 1 µM; previously reported values for 5a–5d; cited from earlier work

Row | Compound | IC50 (HL-60 (promyeloblast)) | %C percentage cytotoxicity S102 (S102 (Thai liver cancer)) | IC50 [1] | IC50 [2] | IC50 [3] | %C percentage cytotoxicity A549 (A549 (lung carcinoma)) | IC50 [4] | IC50 [5] | inhibition at 1 µM (HIV-1 RT [7]) | melting point | IC50 [8] | %C percentage cytotoxicity H69AR [6] | %C percentage cytotoxicity HL-60 (HL-60 (promyeloblast)) | %C percentage cytotoxicity HuCCA-1 [1] | %C percentage cytotoxicity MDA-MB-231 [2] | %C percentage cytotoxicity T47-D [3] | %C percentage cytotoxicity HeLA [4] | %C percentage cytotoxicity HepG2 (HepG2 (hepatocarcinoma)) | %C percentage cytotoxicity MRC-5 [5] | %C percentage cytotoxicity MOLT-3 [8] | other results
1 | N#Cc1ccc(Nc2cc(Oc3ccc(C=O)cc3)c3ccccc3n2)nc1 [Compound 6a, 4-(4’-formylphenoxy)-2-(5″-cyanopyridin-2″ylamino)quinoline] | 15 ± 1.8 µM | %C = 31.7 ^c | 14.9 ± 1.1 µM | 68 ± 2 µM | 46.3 ± 0.2 µM | %C = 42.0 ^c | 15.4 ± 0.8 µM | 18.3 ± 3.9 µM | 19.4 ± 1.8% | 248 to 249 °C | 5.13 ± 1.5 µM |  |  |  |  |  |  |  |  |  | IC50 (HepG2 (hepatocarcinoma)): 23.7 ± 1 µM; IC50 [6]: 64.2 ± 2.5 µM
2 | N#Cc1ccc(Nc2cc(Oc3ccc(C=O)cc3)c3ccccc3n2)cc1 [Compound 5a, 4-(4′-formylphenoxy)-2-(4″-cyanophenyl)-aminoquinoline] | 16.6 ± 4.7 µM | %C = 20.9 ^c | 29.7 ± 2 µM | 77.7 ± 5.9 µM | 43 ± 5.3 µM |  | 12.6 ± 1.3 µM | 108 ± 4.7 µM |  | 267.1 to 268 °C | 15.6 ± 3.6 µM | %C = 38.0 ^c |  |  |  |  |  |  |  |  | IC50 (A549 (lung carcinoma)): 122 ± 4.5 µM; IC50 (HepG2 (hepatocarcinoma)): 73.2 ± 7.7 µM; Inhibitory activities (%) against HIV-1 RT (HIV-1 RT [9]): 19.4 ± 1.7%
3 | N#Cc1ccc(Nc2cc(Oc3ccc(C#N)cc3)nc3ccccc23)cc1 [Compound 8c, 2-(4′-cyanophenoxy)-4-(4″-cyanophenyl)-aminoquinoline] |  | %C = 0.0 ^c |  |  |  | %C = 29.0 ^c |  |  | 28.1 ± 3% | 187.5 to 188 °C |  | %C = 21.0 ^c | %C = 1.0 ^c | %C = 25.8 ^c | %C = 0.0 ^c | %C = 35.0 ^c | %C = 0.0 ^c | %C = 40.3 ^c | %C = 17.2 ^c | %C = 2.1 ^c | 
4 | N#Cc1ccc(Nc2cc(Oc3ccc(C#N)cc3)c3ccccc3n2)cc1 [Compound 5c, 4-(4′-cyanophenoxy)-2-(4″-cyanophenyl)-aminoquinoline] |  | %C = 0.0 ^c |  |  |  | %C = 26.0 ^c |  |  |  |  |  | %C = 26.0 ^c | %C = 2.0 ^c | %C = 23.0 ^c | %C = 38.4 ^c | %C = 45.0 ^c | %C = 25.0 ^c | %C = 44.8 ^c | %C = 12.0 ^c | %C = 6.0 ^c | Inhibitory activities (%) against HIV-1 RT (HIV-1 RT [9]): 39.7 ± 3.0%
5 | N#Cc1ccc(Oc2cc(Nc3ccc(C#N)cn3)nc3ccccc23)cc1 [Compound 6c, 4-(4′-cyanophenoxy)-2-(5″-cyanopyridin-2″ylamino)quinoline] |  | %C = 44.8 ^c | 22.9 ± 0.9 µM | 66.6 ± 3 µM | 47.1 ± 3.3 µM |  | 67.7 ± 0.6 µM | 69.2 ± 12.4 µM | 27.6 ± 2.1% | 225.7 to 225.9 °C | 14.1 ± 0.4 µM |  | %C = 9.0 ^c |  |  |  |  |  |  |  | IC50 (A549 (lung carcinoma)): 14 ± 2.2 µM; IC50 (HepG2 (hepatocarcinoma)): 101.7 ± 0.7 µM; IC50 [6]: 66.2 ± 2.4 µM
6 | N#Cc1ccc(Oc2cc(Oc3ccc(C#N)cc3)c3ccccc3n2)cc1 [Compound 4c, 2,4-di-(4′-cyanophenoxy)-quinoline] |  | %C = 23.7 ^c |  | 92.5 ± 4.2 µM |  | %C = 12.0 ^c |  | 108 ± 6.4 µM | 30.9 ± 1.8% | 220.9 to 221.5 °C |  | %C = 21.0 ^c | %C = 15.0 ^c | %C = 15.0 ^c |  | %C = 27.0 ^c | %C = 23.0 ^c | %C = 41.4 ^c |  | %C = 11.0 ^c | 
7 | Cc1cc(C=CC#N)cc(C)c1Oc1cc(Nc2ccc(C#N)cc2)c2ccccc2n1 [Compound 11b, 2-(4′-(2″-(E, Z)-cyanovinyl)-2′,6′-dimethyl-phenoxy)-4-(4″-cyanophenyl)-aminoquinoline] |  | %C = 0.0 ^c |  |  |  | %C = 0.0 ^c |  |  | 34.3 ± 2.6% | 180.7 to 182.3 °C |  | %C = 3.0 ^c | %C = 0.0 ^c | %C = 0.0 ^c | %C = 14.1 ^c | %C = 4.0 ^c | %C = 2.0 ^c | %C = 3.7 ^c | %C = 0.0 ^c | %C = 19.0 ^c | 
8 | Cc1cc(C#N)cc(C)c1Oc1cc(Nc2ccc(C#N)cc2)c2ccccc2n1 [Compound 8d, 2-(2′,6′-Dimethyl-4′-cyanophenoxy)-4-(4″-cyanophenyl)-aminoquinoline] | 56.6 ± 4.7 µM | %C = 0.0 ^c |  |  |  | %C = 29.1 ^c | 104 ± 4.7 µM |  | 34.5 ± 2.3% | 201.3 to 202 °C | 67.4 ± 3.1 µM | %C = 0.0 ^c |  | %C = 18.4 ^c | %C = 32.4 ^c | %C = 31.0 ^c |  | %C = 32.0 ^c | %C = 15.5 ^c |  | 
